Data set [1] can be described thus: Storage stability of water-soluble compositions and their aqueous solutions. It is filed as physicochemical. To be noted: in water or saline; refrigerated or frozen as stated.
Data set [2] has as its system spontaneously hypertensive rats (SHR). Description: Ischemia/reperfusion, middle cerebral artery occlusion model (MCAO), TTC staining. Type of data set: in vivo, rat. Conditions: CoQ10 treatment postischemically.
In data set [3] the test system is Human teratocarcinoma NT2. Description: Protection against hypoxia, cell viability by trypan blue exclusion. Type of data set: cell-based. To be noted: 10 mg/ml as PTS formulation, 3 days; 17.5 hours anaerobic, glucose-free. On the procedure: The flasks were sealed in an anaerobic chamber containing Gas Pak Plus gas generator envelopes and were incubated in the anaerobic conditions at 37° C. for 17.5 hours in glucose-free medium. Following the hypoxic treatment the cells were placed again in the complete medium (with and without CoQ10 or vitamin E) and were analysed either immediately (time 0) or were cultured for the additional 24 hr under the normoxic conditions. Cell viability was measured by trypan blue exclusion assay. […]

For data set [4], the system named is red blood cells (RBC) isolated from Balb/c mice. Briefly: In vitro haemolysis of red blood cells (RBC). Type of data set: cell-based, mouse. To be noted: 0.3% Triton X-100, 1 h at 37° C., taken as 100% haemolysis (Table 17 reference column).
Data set [5] in a line: Systemic release of vitamin E following administration of PTS (plasma alpha-tocopherol by HPLC). Type of data set: in vivo, Sprague Dawley male rats. Conditions: for Concentration of α-tocopherol in rat blood plasma: PTS 50 mg/kg. The protocol: PTS, dissolved in water (50 mg/ml), was administered to Sprague Dawley male rats (300-350 g) either orally or intravenously at a dose of 50 mg/kg body weight. Heparinized blood samples were collected at 0, 3, 8 and 24 hr following PTS administration. Blood plasma samples were obtained and analyzed for the content of alpha-tocopherol using an HPLC method using a Supercosil DB column and a mobile phase of ethanol:methanol (80:20 v/v) at a flow rate of 1 ml/min. Beckman System Karat software was used for data quantification.

For the compound `CC1=C(/C=C/C(C)=C/C=C/C(C)=C/C=C/C=C(C)/C=C/C=C(C)/C=C/C2=C(C)C(=O)[C@@H](O)CC2(C)C)C(C)(C)C[C@H](O)C1=O` [Astaxanthin], the “stability of aqueous solutions” value in data set [1] was “remained stable for several months”.

Consider `COC1=C(OC)C(=O)C(C/C=C(\C)CC/C=C(\C)CC/C=C(\C)CC/C=C(\C)CC/C=C(\C)CC/C=C(\C)CC/C=C(\C)CC/C=C(\C)CC/C=C(\C)CCC=C(C)C)=C(C)C1=O` [CoQ10, Coenzyme Q10], for which the “protective effects against ischemia-induced tissue damage” value in data set [2] is on record as “clearly evident”. In addition, in data set [3], the “percentage of death during the 24 hr recovery period from hypoxia” value is recorded as “reduced by half”.

As to `Cc1c(C)c2c(c(C)c1O)CC[C@@](C)(CCC[C@H](C)CCC[C@H](C)CCCC(C)C)O2` [Vitamin E, α-(+)-tocopherol], the “percentage of death during the 24 hr recovery period from hypoxia” value in data set [3] is listed as “reduced by half”.

Take Triton X-100: the “Percentage of lysed Cells” value in data set [4] came to 100.0%.

For the compound “polyoxyethanyl-α-tocopheryl sebacate [PTS]”, the “Concentration of α-tocopherol in rat blood plasma” value in data set [5] (Intravenous administration, 3 hours) is reported as 18.48 ± 2.40 (n = 3) μg/ml; in data set [5] (Intravenous administration, 8 hours) it was 11.19 ± 3.11 (n = 3) μg/ml; in data set [5] (Intravenous administration, 24 hours), 10.59 ± 1.48 (n = 3) μg/ml; in data set [5] (Oral administration, 3 hours) it was 8.65 ± 1.40 (n = 3) μg/ml; in data set [5] (Oral administration, 8 hours), 9.33 ± 2.10 (n = 3) μg/ml; in data set [5] (Oral administration, 24 hours) it was 8.31 ± 0.60 (n = 3) μg/ml. In data set [5] (oral or intravenous PTS, rat), the “plasma content of α-tocopherol after PTS (systemic conversion to vitamin E)” value is given as “Elevated”.

Source of the values: US8524696B2, “Water-soluble compositions of bioactive lipophilic compounds” (priority 1999, dated 2013).
